Data set [1] has as its target T1, Aβ1-42 (Homo sapiens, UniProt P05067).
T1 construct: was used to dissolve amyloid β1-40 (Sigma A1075); purchased Sigma A1075
In words: Self-induced Aβ1-42 aggregation (ThT assay). In kind it is biochemical. Conditions: for Self-induced Aβ aggregation inhibition relative to donepezil: 100.0 μM, versus donepezil; for Inhibition of self-induced Aβ1-42 aggregation: Aβ1-42 10.0 μM, compound 100.0 μM, ThT.

Data set [2] can be described thus: in vitro. In kind it is cell-based. Conditions: MTT, read-out: PC12 viability percent (cytotoxicity). Here is the method: The cytotoxic effect of the selected compounds (8l and 8n) on the PC12 cell line was evaluated by using the MTT-based colorimetric assay. First, the PC12 cell line was cultivated in DMEM culture medium, supplemented with fetal bovine serum (10%). […]. Thereafter, the culture medium of each well was replaced by 20 µl MTT solution (5.0 mg/ml) and incubated to form formazan crystals, followed by dissolving them in DMSO (100.0 µl) and recording the related absorbance at 570 nm using a Synergy 2 multimode plate reader (Biotek, Winooski, VT, United States). The viability percent was then calculated according to the control well, where no compound was added to the related well. The mentioned protocol was repeated in triplicates, and the mean ± SEM of the obtained results was reported.

For data set [3], the target named is T2, BuChE (from equine serum) (Equus caballus, UniProt P81908).
T2 construct: BuChE from equine serum was employed for Ellman’s assay; purchased Merck or Aldrich; host or cells: equine serum
Nature of the data set: biochemical. Type of data set: biochemical. Conditions: mean ± SEM of three experiments, read-out: eq BuChE IC50. As for the experimental part: (§1) AChE from electrophorus electricus and BuChE from equine serum was employed for Ellman’s assay. Each compound (5.0 mg) was dissolved in 1.0 ml of DMSO. […] Briefly, a mixture of phosphate buffer (2.0 ml, 0.1 M, pH = 8.0), 60.0 µl of DTNB solution, and 20.0 µl of AChE/BuChE was prepared, and 30.0 µl of the test compounds in different concentrations were then added to the mixture. Next, a solution of the substrate (acetylthiocholine iodide/butyrylthiocholine iodide, 20.0 µl) was added to the mixture after 10 min incubation at 25°C. All experiments were performed in triplicates, and the temperature of all solutions was controlled to be maintained at 25°C. […] The blank solution was used to validate the non-enzymatic hydrolysis of the substrate during the assessment. The blank solution was prepared by a mixture of 2.0 ml of buffer, 30.0 μl of DMSO, 60.0 μl of DTNB, and 20.0 μl of substrate. The rate of the enzymatic hydrolysis of the substrate was calculated, and % inhibition of the compounds was determined. The half maximal inhibitory concentration (IC50) values were graphically determined from inhibition curves (logarithm of the concentration of the tested compound versus percent of the inhibition).

In data set [4] the target is T3, Aβ1-42 in the presence of AChE (Homo sapiens, UniProt P05067).
T3 construct: was used to dissolve amyloid β1-40 (Sigma A1075); purchased Sigma (Aβ); Merck or Aldrich (AChE) A1075 (Aβ)
In words: AChE-induced Aβ1-42 aggregation (ThT assay). Type of data set: biochemical. Conditions: compound 100.0 μM, AChE 0.01 u/ml.

The target in data set [5] is T4, 15-LOX (soybean lipoxygenase) (Glycine max, UniProt P08170).
T4 construct: purchased Merck or Aldrich
T4 sequence (P08170 1-839): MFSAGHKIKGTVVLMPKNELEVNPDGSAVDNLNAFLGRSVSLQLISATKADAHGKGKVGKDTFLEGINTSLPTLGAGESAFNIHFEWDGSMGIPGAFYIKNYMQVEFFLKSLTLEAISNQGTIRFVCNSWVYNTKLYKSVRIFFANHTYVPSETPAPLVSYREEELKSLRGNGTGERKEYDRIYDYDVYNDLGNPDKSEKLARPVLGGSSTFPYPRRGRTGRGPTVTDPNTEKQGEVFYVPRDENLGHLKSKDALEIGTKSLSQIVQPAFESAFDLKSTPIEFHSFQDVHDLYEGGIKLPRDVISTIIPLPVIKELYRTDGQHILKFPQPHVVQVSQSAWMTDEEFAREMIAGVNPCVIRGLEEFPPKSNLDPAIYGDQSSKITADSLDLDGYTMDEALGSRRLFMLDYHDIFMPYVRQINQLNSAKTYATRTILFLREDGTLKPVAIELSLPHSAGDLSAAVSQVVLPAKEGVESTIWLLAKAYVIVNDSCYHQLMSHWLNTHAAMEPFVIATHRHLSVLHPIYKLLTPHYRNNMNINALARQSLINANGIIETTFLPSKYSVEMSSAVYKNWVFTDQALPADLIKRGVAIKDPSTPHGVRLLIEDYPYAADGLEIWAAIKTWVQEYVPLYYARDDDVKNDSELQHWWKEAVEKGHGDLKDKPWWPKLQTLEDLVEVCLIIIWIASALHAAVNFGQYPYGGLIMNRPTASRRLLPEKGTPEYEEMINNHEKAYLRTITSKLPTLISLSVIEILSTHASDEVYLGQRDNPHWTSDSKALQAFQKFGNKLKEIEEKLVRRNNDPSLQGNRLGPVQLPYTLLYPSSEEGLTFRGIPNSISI
In words: Soybean 15-LOX inhibition assay. Type of data set: biochemical. Here is the method:
A solution of the target compound was prepared in DMSO, and it was diluted with phosphate buffer (0.1 M, pH = 8.0).

Data set [6] concerns BV-2 cells. In words: Hydrogen peroxide cell-based assay (extracellular H2O2, amyloid β-induced). Further details: species or system murine. Conditions: 10.0 μM compound 3 h before amyloid β1-40 (5.0 μM), 24 h. As for the experimental part:
The BV-2 immortalized murine microglial cell line was cultured in a high-glucose Dulbecco’s modified Eagle medium (DMEM) without phenol red supplemented with 10% of FBS, %1 of L -glutamine, and 1% of penicillin–streptomycin solution. The cells were kept in a moistened atmosphere at 37°C. Quantitation of the extracellular H2O2 produced by the BV-2 cells was detected using the Oxiselect Sta-343 hydrogen peroxide assay according to the kit’s protocol. Briefly, the cells were seeded in a 384-well plate (1,000 cells/well) overnight in 50.0 μl/well of serum and phenol red free culture medium, then treated with 10.0 μM of the compounds for 3 h, prior to amyloid β1-40 treatment (5.0 μM) and incubated for 24 h. An amount of 25.0 μl of medium was collected and mixed with 250.0 μl aqueous working solution. The absorbance values at 595 nm of each well were measured using a BMG Labtech Omega FLUOstar microplate reader. BHT (butylated hydroxytoluene, Cell biolabs) was also tested as a reference antioxidant agent ([Datki et al., 2003]).

The target in data set [7] is T5, AChE (from electrophorus electricus) (Electrophorus electricus, UniProt O42275).
T5 construct: purchased Merck or Aldrich
In words: Cholinesterase inhibition assay (Ellman's method), AChE. In kind it is biochemical. Conditions: test concentration not given. As for the experimental part:
as §1
A general note: DTNB colorimetry detects thiols as they appear.

For data set [8], the target named is T6, BuChE (Equus caballus, UniProt P81908).
T6 construct: BuChE from equine serum was employed for Ellman’s assay; purchased Merck or Aldrich; host or cells: equine serum
Nature of the data set: Kinetic study of BuChE inhibition (Lineweaver–Burk). In kind it is biochemical. Conditions: secondary plot; inhibitor 0, 10.0, 20.0, 40.0 µM; read-out: Inhibitory constant (Ki) for BuChE. Here is the method: Kinetics of the BuChE inhibition activity was studied for compound 8l at different inhibitor concentrations (0, 10.0, 20.0, and 40.0 µM) as mentioned in the ChE inhibition assay section. Different concentrations of the substrate (S) and butyrylthiocholine iodide (BuChI) were applied to obtain the initial velocity measurements, in each case. The reciprocal of the S (1/S) was plotted against the initial velocity (1/v) ([Rampa et al., 2000]). […] […]. Ellman’s method was utilized to assess anti-AChE/BuChE activity of the synthesized compounds ([Ellman et al., 1961]). AChE from electrophorus electricus and BuChE from equine serum was employed for Ellman’s assay. Each compound (5.0 mg) was dissolved in 1.0 ml of DMSO. […] Briefly, a mixture of phosphate buffer (2.0 ml, 0.1 M, pH = 8.0), 60.0 µl of DTNB solution, and 20.0 µl of AChE/BuChE was prepared, and 30.0 µl of the test compounds in different concentrations were then added to the mixture. […] The change in the absorbance wavelength of 412 nm was recorded for 1 min. […] The rate of the enzymatic hydrolysis of the substrate was calculated, and % inhibition of the compounds was determined. The half maximal inhibitory concentration (IC50) values were graphically determined from inhibition curves (logarithm of the concentration of the tested compound versus percent of the inhibition).

Read-outs that look alike come from different tables or passages of the source.

T1 sequence (P05067 672-711): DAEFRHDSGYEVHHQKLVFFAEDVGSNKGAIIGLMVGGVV
T3 sequence (P05067 672-711): as above
T2 sequence (P81908 whole entry): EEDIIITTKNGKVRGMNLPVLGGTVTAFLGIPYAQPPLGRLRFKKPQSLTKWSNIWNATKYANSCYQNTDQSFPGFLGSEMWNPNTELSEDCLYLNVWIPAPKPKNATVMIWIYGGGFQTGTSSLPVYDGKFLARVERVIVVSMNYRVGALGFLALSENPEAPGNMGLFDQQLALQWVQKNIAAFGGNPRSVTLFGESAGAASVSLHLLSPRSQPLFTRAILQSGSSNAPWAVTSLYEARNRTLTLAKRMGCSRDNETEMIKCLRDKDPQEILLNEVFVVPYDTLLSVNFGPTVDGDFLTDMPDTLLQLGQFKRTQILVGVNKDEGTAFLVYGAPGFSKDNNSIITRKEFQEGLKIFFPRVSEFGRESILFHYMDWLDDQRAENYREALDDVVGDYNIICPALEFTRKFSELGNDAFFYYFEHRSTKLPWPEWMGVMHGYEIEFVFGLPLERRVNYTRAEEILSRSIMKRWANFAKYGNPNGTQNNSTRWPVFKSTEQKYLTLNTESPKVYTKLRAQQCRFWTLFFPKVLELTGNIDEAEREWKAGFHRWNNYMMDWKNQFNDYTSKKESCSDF
T5 sequence (O42275 24-633): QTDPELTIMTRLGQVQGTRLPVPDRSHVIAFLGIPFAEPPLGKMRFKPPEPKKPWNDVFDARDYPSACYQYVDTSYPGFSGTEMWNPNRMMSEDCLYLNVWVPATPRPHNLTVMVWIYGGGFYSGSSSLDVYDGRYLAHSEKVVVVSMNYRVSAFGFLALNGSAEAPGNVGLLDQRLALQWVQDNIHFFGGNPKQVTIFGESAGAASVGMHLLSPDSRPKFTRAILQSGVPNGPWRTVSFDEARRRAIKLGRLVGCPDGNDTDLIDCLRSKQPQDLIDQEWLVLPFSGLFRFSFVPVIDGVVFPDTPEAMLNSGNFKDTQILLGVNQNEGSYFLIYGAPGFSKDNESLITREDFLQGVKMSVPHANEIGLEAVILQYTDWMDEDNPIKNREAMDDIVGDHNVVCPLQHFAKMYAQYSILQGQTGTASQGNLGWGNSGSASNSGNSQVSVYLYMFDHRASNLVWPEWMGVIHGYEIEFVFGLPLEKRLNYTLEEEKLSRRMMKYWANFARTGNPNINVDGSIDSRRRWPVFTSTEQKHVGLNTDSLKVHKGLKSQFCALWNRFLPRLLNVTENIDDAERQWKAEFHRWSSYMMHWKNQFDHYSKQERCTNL
T6 sequence (P81908 whole entry): as the sequence (P81908 whole entry) above

Usually viability stands for the share of living cells, or the viability signal relative to a control. One may read the IC50 as the concentration that inhibits the measured activity by half. The term inhibition denotes the share of the control response that was lost under treatment. On to `COc1cccc2cc(-c3ccc(OCc4cn(Cc5ccccc5)nn4)cc3)c(=O)oc12` [8n, 3-(4-((1-Benzyl-1H-1,2,3-triazol-4-yl)methoxy)phenyl)-8-methoxy-2H-chromen-2-one], for which, in data set [1], the “Self-induced Aβ aggregation inhibition relative to donepezil” value was 1.79 times and the “Inhibition of self-induced Aβ1-42 aggregation” value is 76.2 ± 6.4%. Besides, the viability at 24 h, 50 µM in data set [2] (rat, PC12 cells) came to 95.2 ± 1.1%. The IC50 in data set [3] was 45.1 ± 1.3 µM. Moreover, the inhibition at 100 µM in data set [4] turned out to be 25.1 ± 8.7%. The molecule further showed a 50% inhibitory concentration (IC50) in data set [5] of 42.5 ± 1.7 µM. Further, the “H2O2 level of BV-2 cells (% ± SEM of control)” value in data set [6] is 122.4 ± 8.3 % of control. For the same molecule, the “ee AChE %inhib.” value in data set [7] stood at 49.9%.

As to `Cc1cc(C(C)(C)C)c(O)c(C(C)(C)C)c1` [BHT, butylated hydroxytoluene, reference compound], the “H2O2 level of BV-2 cells (% ± SEM of control)” value in data set [6] is on record as 114.4 ± 8.5 % of control.

As a reminder, the Ki is a dissociation constant, usually derived from enzyme kinetics or from competition with a known ligand. In the case of `COc1cccc(Cn2cc(COc3ccc(-c4cc5ccccc5oc4=O)cc3)nn2)c1` [8l, 3-(4-((1-(3-Methoxybenzyl)-1H-1,2,3-triazol-4-yl)methoxy)phenyl)-2H-chromen-2-one], in data set [1], the “Self-induced Aβ aggregation inhibition relative to donepezil” value came to 1.44 times and the “Inhibition of self-induced Aβ1-42 aggregation” value was determined as 61.3 ± 4.8%. In data set [2] (rat, PC12 cells), the viability at 24 h, 50 µM came out at 96.5 ± 0.9%. In data set [3], the IC50 is 19.5 ± 0.9 µM. Also, the inhibition at 100 µM in data set [4] was 36.2 ± 6.1%. The 50% inhibitory concentration (IC50) in data set [5] turned out to be 39.1 ± 1.1 µM. In addition, in data set [6], the “H2O2 level of BV-2 cells (% ± SEM of control)” value is 97.6 ± 6.1 % of control. In addition, the “ee AChE %inhib.” value in data set [7] is recorded as 16.5%. Moreover, in data set [8], the Ki amounted to 14.1 µM.

As to `Nc1c2c(nc3ccccc13)CCCC2` [Tacrine, tacrine, reference compound], the viability at 24 h, 50 µM in data set [2] amounted to 67.3 ± 1.3%.
